Laboratory results taken from ChEMBL document CHEMBL1201862, “PubChem BioAssay data set” (2004).
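Test compounds were applied to cells in 96-well plates for 48 hours at 5 doses. GI50 is the concentration that inhibits growth by half.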 Activity calls are given as the source filed them. Cut-off read from the data, not from the text of the source: active = GI50 up to about 1.1 µM and inactive = higher.

Assays:
Experiment in all cases: inhibition of tumour cell growth, NCI panel, 48 h
UACC-62 = tested on: UACC-62
OVCAR-5 = tested on: OVCAR-5
Malme-3M = tested on: Malme-3M
M14 = tested on: M14
OVCAR-3 = tested on: OVCAR-3
SK-MEL-2 = tested on: SK-MEL-2
DMS-114 = tested on: DMS-114
XF498 = tested on: XF498
OVCAR-8 = tested on: OVCAR-8
SK-OV-3 = tested on: SK-OV-3
KM-20L2 = tested on: KM-20L2
RXF 631 = tested on: RXF 631
TK-10 = tested on: TK-10
HCT-116 = tested on: HCT-116
NCI-H522 = tested on: NCI-H522
HCC 2998 = tested on: HCC 2998
SNB-78 = tested on: SNB-78
SNB-75 = tested on: SNB-75
HOP-62 = tested on: HOP-62
A498 = tested on: A498
A549 = tested on: A549
EKVX = tested on: EKVX
U-251 = tested on: U-251
SK-MEL-28 = tested on: SK-MEL-28
LXFL 529 = tested on: LXFL 529
SF-539 = tested on: SF-539
NCI-H23 = tested on: NCI-H23
ACHN = tested on: ACHN
NCI-H460 = tested on: NCI-H460
RXF 393 = tested on: RXF 393
NCI-H226 = tested on: NCI-H226
COLO 205 = tested on: COLO 205
SF-268 = tested on: SF-268
SW-620 = tested on: SW-620
CCRF-CEM = tested on: CCRF-CEM
KM12 = tested on: KM12
SF-295 = tested on: SF-295
HCT-15 = tested on: HCT-15
HL-60 = tested on: HL-60
K562 = tested on: K562
M19-MEL = tested on: M19-MEL
LOX IMVI = tested on: LOX IMVI
786-0 = tested on: 786-0
OVCAR-4 = tested on: OVCAR-4
MOLT-4 = tested on: MOLT-4
HOP-92 = tested on: HOP-92
HT-29 = tested on: HT-29
DLD-1 = tested on: DLD-1
IGROV-1 = tested on: IGROV-1
RPMI-8226 = tested on: RPMI-8226
SN12C = tested on: SN12C
UACC-257 = tested on: UACC-257
HOP-18 = tested on: HOP-18
UO-31 = tested on: UO-31
SNB-19 = tested on: SNB-19
CAKI-1 = tested on: CAKI-1
SK-MEL-5 = tested on: SK-MEL-5

Q: For `CC1=C(C(=O)Nc2cc(=O)n(C)c(=O)n2C)C(c2ccc([N+](=O)[O-])cc2)C(C(=O)Nc2cc(=O)n(C)c(=O)n2C)=C(C)N1`, which GI50 (UACC-62) is on record?
A: 26.5 µM (inactive)

Q: And the GI50 (OVCAR-5)?
A: > 100 µM (inactive)

Q: And the GI50 (Malme-3M)?
A: > 100 µM (inactive)

Q: What about the GI50 (M14) of the same compound?
A: > 100 µM (inactive)

Q: And the GI50 (OVCAR-3)?
A: > 100 µM (inactive)

Q: And the GI50 (SK-MEL-2)?
A: > 100 µM (inactive)

Q: And the GI50 (DMS-114)?
A: 73.5 µM (inactive)

Q: What about the GI50 (XF498) of the same compound?
A: 8.97 µM (inactive)

Q: And the GI50 (OVCAR-8)?
A: 68.1 µM (inactive)

Q: What about the GI50 (SK-OV-3) of the same compound?
A: 32.3 µM (inactive)

Q: And the GI50 (KM-20L2)?
A: > 100 µM (inactive)

Q: And the GI50 (RXF 631)?
A: > 100 µM (inactive)

Q: What about the GI50 (TK-10) of the same compound?
A: > 100 µM (inactive)

Q: What about the GI50 (HCT-116) of the same compound?
A: 74.3 µM (inactive)

Q: What about the GI50 (NCI-H522) of the same compound?
A: 37.1 µM (inactive)

Q: And the GI50 (HCC 2998)?
A: 94.8 µM (inactive)

Q: And the GI50 (SNB-78)?
A: > 100 µM (inactive)

Q: And the GI50 (SNB-75)?
A: 42 µM (inactive)

Q: And the GI50 (HOP-62)?
A: 18.1 µM (inactive)

Q: What about the GI50 (A498) of the same compound?
A: > 100 µM (inactive)

Q: What about the GI50 (A549) of the same compound?
A: > 100 µM (inactive)

Q: What about the GI50 (EKVX) of the same compound?
A: > 100 µM (inactive)

Q: What about the GI50 (U-251) of the same compound?
A: > 100 µM (inactive)

Q: What about the GI50 (SK-MEL-28) of the same compound?
A: > 100 µM (inactive)

Q: And the GI50 (LXFL 529)?
A: 51.8 µM (inactive)

Q: What about the GI50 (SF-539) of the same compound?
A: > 100 µM (inactive)

Q: And the GI50 (NCI-H23)?
A: > 100 µM (inactive)

Q: What about the GI50 (ACHN) of the same compound?
A: 68.2 µM (inactive)

Q: And the GI50 (NCI-H460)?
A: > 100 µM (inactive)

Q: And the GI50 (RXF 393)?
A: > 100 µM (inactive)

Q: What about the GI50 (NCI-H226) of the same compound?
A: 49.3 µM (inactive)

Q: What about the GI50 (COLO 205) of the same compound?
A: > 100 µM (inactive)

Q: What about the GI50 (SF-268) of the same compound?
A: > 100 µM (inactive)

Q: And the GI50 (SW-620)?
A: > 100 µM (inactive)

Q: And the GI50 (CCRF-CEM)?
A: > 100 µM (inactive)

Q: And the GI50 (KM12)?
A: > 100 µM (inactive)

Q: And the GI50 (SF-295)?
A: > 100 µM (inactive)

Q: What about the GI50 (HCT-15) of the same compound?
A: > 100 µM

Q: And the GI50 (HL-60)?
A: > 100 µM (inactive)

Q: And the GI50 (K562)?
A: 75.5 µM (inactive)

Q: And the GI50 (M19-MEL)?
A: > 100 µM (inactive)

Q: And the GI50 (LOX IMVI)?
A: 54.6 µM (inactive)

Q: What about the GI50 (786-0) of the same compound?
A: 84.9 µM (inactive)

Q: And the GI50 (OVCAR-4)?
A: 31.5 µM (inactive)

Q: What about the GI50 (MOLT-4) of the same compound?
A: 52.4 µM (inactive)

Q: What about the GI50 (HOP-92) of the same compound?
A: 26.7 µM (inactive)

Q: And the GI50 (HT-29)?
A: > 100 µM (inactive)

Q: What about the GI50 (DLD-1) of the same compound?
A: 90.8 µM (inactive)

Q: What about the GI50 (IGROV-1) of the same compound?
A: > 100 µM (inactive)

Q: And the GI50 (RPMI-8226)?
A: 59.6 µM (inactive)

Q: And the GI50 (SN12C)?
A: > 100 µM (inactive)

Q: What about the GI50 (UACC-257) of the same compound?
A: 86.7 µM (inactive)

Q: And the GI50 (HOP-18)?
A: 51.5 µM (inactive)

Q: And the GI50 (UO-31)?
A: 21.8 µM (inactive)

Q: What about the GI50 (SNB-19) of the same compound?
A: > 100 µM (inactive)

Q: With `Cc1ccccc1C(C#N)C(=O)C(=O)Nc1nc([N+](=O)[O-])cs1` (centres undefined) as the compound, how does the GI50 (UACC-62) read?
A: > 100 µM (inactive)

Q: What about the GI50 (OVCAR-5) of the same compound?
A: > 100 µM (inactive)

Q: What about the GI50 (Malme-3M) of the same compound?
A: > 100 µM (inactive)

Q: And the GI50 (M14)?
A: > 100 µM (inactive)

Q: What about the GI50 (OVCAR-3) of the same compound?
A: > 100 µM (inactive)

Q: What about the GI50 (DMS-114) of the same compound?
A: > 100 µM (inactive)

Q: And the GI50 (XF498)?
A: > 100 µM (inactive)

Q: What about the GI50 (OVCAR-8) of the same compound?
A: > 100 µM (inactive)

Q: What about the GI50 (SK-OV-3) of the same compound?
A: > 100 µM (inactive)

Q: And the GI50 (KM-20L2)?
A: > 100 µM (inactive)

Q: What about the GI50 (RXF 631) of the same compound?
A: > 100 µM (inactive)

Q: And the GI50 (TK-10)?
A: > 100 µM (inactive)

Q: What about the GI50 (HCT-116) of the same compound?
A: > 100 µM (inactive)

Q: And the GI50 (NCI-H522)?
A: > 100 µM (inactive)

Q: And the GI50 (HCC 2998)?
A: > 100 µM (inactive)

Q: And the GI50 (SNB-78)?
A: > 100 µM (inactive)

Q: And the GI50 (SNB-75)?
A: > 100 µM (inactive)

Q: And the GI50 (HOP-62)?
A: > 100 µM (inactive)

Q: And the GI50 (A498)?
A: > 100 µM (inactive)

Q: And the GI50 (A549)?
A: > 100 µM (inactive)

Q: And the GI50 (EKVX)?
A: > 100 µM (inactive)

Q: What about the GI50 (U-251) of the same compound?
A: > 100 µM (inactive)

Q: What about the GI50 (SK-MEL-28) of the same compound?
A: > 100 µM (inactive)

Q: What about the GI50 (LXFL 529) of the same compound?
A: > 100 µM (inactive)

Q: And the GI50 (SF-539)?
A: > 100 µM (inactive)

Q: What about the GI50 (NCI-H23) of the same compound?
A: > 100 µM (inactive)

Q: What about the GI50 (ACHN) of the same compound?
A: > 100 µM (inactive)

Q: What about the GI50 (NCI-H460) of the same compound?
A: > 100 µM (inactive)

Q: And the GI50 (RXF 393)?
A: > 100 µM (inactive)

Q: What about the GI50 (NCI-H226) of the same compound?
A: > 100 µM (inactive)

Q: What about the GI50 (SF-268) of the same compound?
A: > 100 µM (inactive)

Q: And the GI50 (SW-620)?
A: > 100 µM (inactive)

Q: And the GI50 (CAKI-1)?
A: > 100 µM (inactive)

Q: What about the GI50 (KM12) of the same compound?
A: > 100 µM (inactive)

Q: What about the GI50 (HCT-15) of the same compound?
A: > 100 µM

Q: What about the GI50 (HL-60) of the same compound?
A: 26.2 µM (inactive)

Q: What about the GI50 (M19-MEL) of the same compound?
A: > 100 µM (inactive)

Q: What about the GI50 (LOX IMVI) of the same compound?
A: 40.2 µM (inactive)

Q: And the GI50 (786-0)?
A: > 100 µM (inactive)

Q: What about the GI50 (SK-MEL-5) of the same compound?
A: > 100 µM (inactive)

Q: What about the GI50 (OVCAR-4) of the same compound?
A: > 100 µM (inactive)

Q: And the GI50 (HT-29)?
A: > 100 µM (inactive)

Q: What about the GI50 (DLD-1) of the same compound?
A: > 100 µM (inactive)

Q: And the GI50 (IGROV-1)?
A: > 100 µM (inactive)

Q: What about the GI50 (SN12C) of the same compound?
A: > 100 µM (inactive)

Q: What about the GI50 (UACC-257) of the same compound?
A: > 100 µM (inactive)

Q: And the GI50 (HOP-18)?
A: > 100 µM (inactive)

Q: What about the GI50 (UO-31) of the same compound?
A: > 100 µM (inactive)

Q: And the GI50 (SNB-19)?
A: > 100 µM (inactive)
